Assay [1] deals with T1, mitoNEET (Homo sapiens, UniProt Q9NZ45).
T1 construct: gene CISD1
T1 sequence (Q9NZ45 2-108): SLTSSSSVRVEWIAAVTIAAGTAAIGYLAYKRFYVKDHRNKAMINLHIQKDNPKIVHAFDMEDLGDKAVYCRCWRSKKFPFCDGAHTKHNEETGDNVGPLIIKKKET
The assay is described as follows: radioligand competition assay (SPA nickel beads). The class given is binding. (Loss of bound radioactivity is the signal in a displacement assay; it reports binding, not function.)

The target in assay [2] is T2, glutamate dehydrogenase (GDH) (Bos taurus, UniProt P00366).
T2 construct: gene GLUD1
T2 sequence (P00366 58-558, one chain of several): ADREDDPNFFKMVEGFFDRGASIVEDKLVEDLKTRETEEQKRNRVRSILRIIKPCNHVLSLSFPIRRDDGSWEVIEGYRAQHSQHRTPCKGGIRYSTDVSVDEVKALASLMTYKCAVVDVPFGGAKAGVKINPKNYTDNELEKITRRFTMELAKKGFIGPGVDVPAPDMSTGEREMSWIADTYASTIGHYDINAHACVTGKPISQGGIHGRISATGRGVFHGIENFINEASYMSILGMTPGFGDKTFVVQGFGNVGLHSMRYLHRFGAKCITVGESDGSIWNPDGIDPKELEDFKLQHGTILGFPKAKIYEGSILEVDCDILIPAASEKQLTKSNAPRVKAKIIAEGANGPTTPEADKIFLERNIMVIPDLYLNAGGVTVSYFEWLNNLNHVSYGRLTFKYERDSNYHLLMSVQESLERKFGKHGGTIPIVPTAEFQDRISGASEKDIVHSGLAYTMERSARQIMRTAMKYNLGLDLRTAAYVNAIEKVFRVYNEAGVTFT
The assay is described as follows: GDH kinetics, NAD(P)H formation at […] nm; fraction of activity. Format: biochemical.

Assay [3] addresses T2, glutamate dehydrogenase (GDH). The assay is described as follows: GDH kinetics, NAD(P)H formation at […] nm; percent activation with NADP. The class given is biochemical.
For assay [4] the target is unchanged. The assay is described as follows: GDH kinetics, NAD(P)H formation at […] nm; fraction of activity with NAD added first. Format: biochemical.
Assay [5] has the same target. The assay is described as follows: GDH kinetics, NAD(P)H formation at […] nm; fraction of activity (Figure 1C). The class given is biochemical.
Assay [6] has the same target. The assay is described as follows: GDH kinetics, NAD(P)H formation at […] nm; percent activation (Figure 4B). Format: biochemical.

The term IC50 denotes the midpoint of a concentration-inhibition curve. Higher therefore signals weaker potency. The molecule `CCCCCCCCCCCCCCCC(=O)SCCNC(=O)CCNC(=O)[C@H](O)C(C)(C)COP(=O)(O)OP(=O)(O)OC[C@H]1O[C@@H](n2cnc3c(N)ncnc32)[C@H](O)[C@@H]1OP(=O)(O)O` [palmitoyl-CoA] gave an IC50 in assay [1] of 304 nM. For the same molecule, the “GDH kinetics, NAD(P)H formation at 340 nm; fraction of activity” value in assay [2] is 0.44 ± 0.04 fraction of activity. Consider `Nc1ncnc2c1ncn2[C@@H]1O[C@H](COP(=O)(O)OP(=O)(O)O)[C@@H](O)[C@H]1O` [ADP], for which, in assay [3], the “% activation” value turned out to be 67 % activation. In the case of `O=C(O[C@@H]1Cc2c(O)cc(O)cc2O[C@@H]1c1cc(O)c(O)c(O)c1)c1cc(O)c(O)c(O)c1` [EGCG], in assay [4], the “GDH kinetics, NAD(P)H formation at 340 nm; fraction of activity with NAD added f” value is listed as 0.35 ± 0.02 fraction of activity. Consider `Nc1nc2c(ncn2[C@@H]2O[C@H](COP(=O)(O)OP(=O)(O)OP(=O)(O)O)[C@@H](O)[C@H]2O)c(=O)[nH]1` [GTP], for which, in assay [5], the “GDH kinetics, NAD(P)H formation at 340 nm; fraction of activity (Figure 1C)” value is “under only one assay condition the rescue of GDH activity from GTP inhibition by mitoNEET could be observed”.

For `CC(C)C[C@H](N)C(=O)O` [leucine], the “GDH kinetics, NAD(P)H formation at 340 nm; percent activation (Figure 4B)” value in assay [6] is on record as “addition of mitoNEET after the addition of leucine gave no impact in percent activation over the addition of leucine alone”.

(Values after PMC9737137, “The Mitochondrial Protein MitoNEET as a Probe for the Allostery of Glutamate Dehydrogenase” (Molecules, 2022).)
